Assay results: patent US20130143965A1, “MICROBI[…] AND STABLE SOLUTIONS OF GAMMA-HYDRO[…] FOR THE TREATMENT OF NARCOLEPSY” (Jazz Pharmaceuticals, Inc., priority 1998, published 2013)
Entries after “also recorded” stand apart in the source; their conditions may differ. Like-named read-outs stand apart in the source and are kept apart here.

Tests used:
[1] = Solubility of sodium oxybate (GHB) in aqueous solution versus pH; details: for State of 1000 mg/cc solution: pH unadjusted
[2] = alcohol dependent patients, cited from earlier work
[3] = Pharmacokinetics of GHB after two consecutive 3 g oral doses in narcoleptic patients; format: in vivo, human; details: for Cmax: po, read-out: maximum GHB concentration (Cmax), mean ±SD
Method: The objective of this study was to assess the pharmacokinetics of GHB after oral administration of two consecutive single doses of GHB (3 g/dose; patients generally ingested the first dose of this medication prior to bedtime and the second dose from 2.5 to 4.0 h later) to narcoleptic patients who are maintained on a chronic regimen of GHB.
This pharmacokinetic study was conducted as an open-label, single-center investigation in 6 narcoleptic patients. The study design is summarized as follows:
Before oral administration of the first GHB dose, an indwelling catheter was placed in an arm vein and a baseline blood sample was collected. Each patient then ingested a 3 g dose of GHB before bedtime. Another 3 g GHB dose was administered 4 h after the first dose. Twenty-one sequential blood samples were collected over 12 h (starting at 10 min after the first dose and ending at 8 h after the second dose). Upon completion of the treatment phase, a follow-up physical examination which included the measurement of vital signs was performed on each patient within 48 h after the last blood sample. A detailed description of the trial methodology is presented in Section IV.
All patients were hospitalized from approximately four hours prior to first GHB dosing (around 6 p.m.) until the end of the treatment period (around 10 a.m. the next morning). Patients ate their dinner at the clinical research unit soon after arrival and fasted until breakfast next morning. At least three hours elapsed between the completion of dinner and the administration of the first GHB dose. An indwelling catheter was placed in an arm vein of each patient for blood sampling at approximately 30 min and 1 h before the first GHB dose and a baseline blood sample (5 mL) was collected.
The first GHB dose (3 g) was administered at around 10 p.m. Dosing of individual patients were staggered. The second GHB dose was administered at 4 h after the first GHB dose (i.e. immediately after the 4 h blood sample). The exact dosing times in each patient were recorded on appropriate CRF pages. Blood samples (5 mL each) were collected through the indwelling catheter into heparinized tubes at 0.2, 0.4, 0.6, 0.8, 1, 1.5, 2, 3, 4, 4.2, 4.4, 4.6, […], 5, 5.5, […], 7, 8, 10, and 12 h after the first GHB dose. Blood samples were processed according to the procedures described herein. Patients were monitored for adverse experiences throughout the study according to the specific procedures.
Dose Administration: The investigator or designee prepared the oral solution for dosing within 30 min prior to the first oral administration to individual patients. The contents of one twin-pouch was emptied into a dosing cup to which two ounces of water were added. After replacing the lid of the dosing cup, it was gently shaken to dissolve the GHB and excipient in water. The GHB solution was ingested in its entirety. Likewise, the second GHB dosing solution was prepared in the same manner and was ingesting in its entirety at 4 h after the first GHB dose.
Plasma samples were analyzed for GHB by the Department of Bioanalytical Chemistry (Covance (previously known as Hazelton Corning), Madison, Wis.) A gas chromatographic method with mass selective detection (GC-MSD) was used in the analysis.
Pharmacokinetic Analysis: Pharmacokinetic parameters were determined for individual sets of plasma GHB concentration vs. time data using the non-compartmental routine in WinNonlin Version 1.1. The peak GHB concentrations (Cmax) and the times of their respectively occurrences (tmax) were observed values. Terminal half-life (T1/2) was obtained by log-linear regression analysis of the terminal phase of concentration vs. time curves. The area under the curve (AUCinf) and the area under the first moment curve (AUMCinf) were calculated by the linear trapezoidal rule up to the last determined concentration and included extrapolated areas to time infinity. Apparent oral clearance (CL/F) was calculated as Dose/AUCinf. […]

[4] = Safety assessment in the pharmacokinetic study (adverse experiences, physical examination); format: in vivo, human
Method: Follow-up occurred within 48 h after the last blood sample had been collected. An abbreviated physical examination which included vital signs measurement was performed. Adverse experiences and concomitant medication use, if any, were assessed. Any ongoing adverse experiences and clinically important findings in a patient were followed to the investigator's and/or sponsor's satisfaction before the patient was discharged from the study.
An adverse experience are any undesirable event experienced by a patient or volunteer whether or not considered drug-related by the investigator. An undesirable event can be, but is not limited to, subjective symptoms experienced by a patient or, objective findings such as significant clinical laboratory abnormalities. Adverse experience is considered synonymous with the term “adverse event”.
The investigators report in detail all adverse experiences and symptoms that occurred during or following the course of trial drug administration for up to 2 days. Included in the description was the nature of the sign or symptom; the date of onset; date or resolution (duration); the severity; the relationship to trial treatment or other therapy; the action taken, if any; and the outcome.
Safety Analyses: Results of physical examinations, vital signs, clinical laboratory data were summarized in tabular form and presented by patient number. […]

In the case of `O=C(O)CCCO` [GHB, gamma-hydroxybutyrate], the solubility ([1]; aqueous medium, 25 °C, thermodynamic from solid) is given as at most 750 mg/mL, the solubility ([1]; aqueous medium, 100 °C, thermodynamic from solid) is given as at least 1000 mg/mL and the apparent oral clearance ([2]; 25 mg/kg dose (Ferrara, 1992)) is given as 8.1 ± 4.8 mL/min/kg. For the same molecule, the apparent oral clearance ([2]; dose of 50 mg/kg (Ferrara, 1992)) was 5.3 ± 2.2 mL/min/kg, the “highest plasma GHB concentration observed in the study” value ([3]; Subject 101 after the second 3 g GHB dose) was 125.0 µg/mL and the “mean observed time to maximum concentration” value ([3]; after the first GHB dose) was 40 ± 6 min. The “mean observed time to maximum concentration” value ([3]; after the second GHB dose) was 36 ± 7 min, the “time by which plasma GHB concentrations were no longer detectable” value ([3]; after the second GHB dose (10 h after the first GHB dose)) was at most 6 h and the Tmax ([3]; human, plasma, oral, 3 g, after dosing (discussion)) was about 40 min. For the same molecule, the concentration at 4 h ([3]; human, plasma, oral, 3 g, at h 4 after the first GHB dose, in three of six patients, read-out: residual GHB levels) was about 15 µg/mL, the half-life ([3]; human, plasma, oral, narcoleptic patients, read-out: elimination half-life of GHB) was under 60 min and the half-life ([3]; human, plasma, oral, terminal phase of the second GHB dose, read-out: mean GHB T1/2 (elimination half-life)) was 53 ± 19 min. The Cmax ([3]; human, plasma, 3 g, first 3 g oral GHB dose, 6 narcoleptic patients) was 62.8 ± 27.4 µg/mL, the Cmax ([3]; human, plasma, 3 g, second 3 g oral GHB dose (4 h after the first)) was 91.2 ± 25.6 µg/mL and the AUC(0-inf) ([3]; human, plasma, two 3 g oral doses 4 h apart, read-out: mean AUCinf (converted)) was 296 µg·h/mL. It also gave a CL/F ([3]; human, plasma, two 3 g oral doses 4 h apart, read-out: mean CL/F (apparent oral clearance)) of 4.2 ± 1 mL/min/kg, an MRT inf ([3]; human, plasma, two 3 g oral doses 4 h apart, read-out: mean MRTinf (converted)) of 249 min and a Vd/F ([3]; human, plasma, two 3 g oral doses 4 h apart, read-out: mean Vz/F) of 0.307 ± 0.096 L/kg. The “mean GHB T1/2 (elimination half-life)” value ([3]; terminal phase of the second GHB dose) was about 35 min, the “adverse experiences / tolerability” value ([4]; narcoleptic patients, two 3 g oral doses) was “No adverse experiences were reported; also recorded: well tolerated” and the “follow-up physical examination results” value ([4]; screen versus follow-up, per individual patient) was “did not identify any changes attributable to GHB”.
In the case of `O=C(O)CCCO` [Sodium Oxybate, sodium oxybate], the solubility ([1]; 500 mg/cc with Malic Acid at pH 5.0) is reported as “not soluble”, the solubility ([1]; aqueous medium, 25 °C, pH 4, aqueous buffer, thermodynamic from solid) is reported as 450 mg/mL and the solubility ([1]; aqueous medium, 25 °C, pH 5, aqueous buffer, thermodynamic from solid) is reported as 500 mg/mL. The solubility ([1]; aqueous medium, 25 °C, pH 6, aqueous buffer, thermodynamic from solid) was 600 mg/mL, the solubility ([1]; aqueous medium, 25 °C, pH 6.8, aqueous buffer, thermodynamic from solid) was 750 mg/mL and the solubility ([1]; aqueous medium, 25 °C, pH 10.3, thermodynamic from solid) was at least 750 mg/mL. The solubility ([1]; aqueous medium, 65 °C, thermodynamic from solid) was 1000 mg/mL, the “Maxium Solubility” value ([1]; pH 4 (HCl), 25°) was 450 mg/cc and the “Maxium Solubility” value ([1]; pH 5 (HCl), 25°) was 500 mg/cc. For the same molecule, the “Maxium Solubility” value ([1]; pH 6 (HCl), 25°) was 600 mg/cc, the “Maxium Solubility” value ([1]; pH 6.8 (HCl), 25°) was 750 mg/cc and the “Maxium Solubility” value ([1]; pH 10.3, 25°) was 750 mg/cc +. For the same molecule, the “Maxium Solubility” value ([1]; pH (unadjusted), 65° Soluble, 25° Gel) was 1000 mg/cc, the “State of 1000 mg/cc solution” value ([1]; 25°) was “Gel” and the “State of 1000 mg/cc solution” value ([1]; 65°) was “Soluble,”.
